Data published in ChEMBL document CHEMBL3885881, “DrugMatrix”.

Organism: Rattus norvegicus
Assay: DrugMatrix - Regimen: Daily Repeat
Assay type: toxicity, organism-based, Sprague-Dawley
Set-up: regimen Daily Repeat, gender Male, age 6-8 weeks
Details: in vivo, po, route oral GAVAGE, vehicle .5 % CMC; for ABSOLUTE BASOPHIL / ABSOLUTE EOSINOPHIL / ABSOLUTE LYMPHOCYTE / ABSOLUTE MONOCYTE / ABSOLUTE SEGMENTED NEUTROPHIL / BASOPHIL / EOSINOPHIL / ERYTHROCYTE COUNT / HEMATOCRIT / HEMOGLOBIN / LEUKOCYTE COUNT / LYMPHOCYTE / MEAN CORPUSCULAR HEMOGLOBIN / MEAN CORPUSCULAR HEMOGLOBIN CONCENTRATION / MEAN CORPUSCULAR VOLUME / MONOCYTE / NEUTROPHIL / NUCLEATED RED BLOOD CELLS / PLATELET COUNT: tissue Blood; for ALANINE AMINOTRANSFERASE / ALBUMIN / ALKALINE PHOSPHATASE / ASPARTATE AMINOTRANSFERASE / BLOOD UREA NITROGEN / CARBON DIOXIDE / CHLORIDE / CHOLESTEROL / CREATINE PHOSPHOKINASE / CREATININE / GLUCOSE / LACTATE DEHYDROGENASE / LIPASE / PHOSPHORUS / POTASSIUM / SODIUM / TOTAL BILIRUBIN / TOTAL PROTEIN / URIC ACID: tissue Plasma
[1] = 0 mg/kg, 72 h, dose level Control, time 3 day
[2] = 0 mg/kg, 120 h, dose level Control, time 5 day
[3] = 100 mg/kg, 72 h, dose level Low, time 3 day

O=C(O)CCc1nc(-c2ccccc2)c(-c2ccccc2)o1 [OXAPROZIN]
ABSOLUTE BASOPHIL [1]: 0 CELLS/uL
ABSOLUTE EOSINOPHIL [1]: 0 CELLS/uL
ABSOLUTE LYMPHOCYTE [1]: 12269.67 CELLS/uL
ABSOLUTE MONOCYTE [1]: 160.33 CELLS/uL
ABSOLUTE SEGMENTED NEUTROPHIL [1]: 970 CELLS/uL
BASOPHIL [1]: 0%
EOSINOPHIL [1]: 0%
ERYTHROCYTE COUNT [1]: 5.76 x10E6/uL
HEMATOCRIT [1]: 36.57%
HEMOGLOBIN [1]: 14.22 G/DL
LEUKOCYTE COUNT [1]: 13.4 x10E3/uL
LYMPHOCYTE [1]: 91.67%
MEAN CORPUSCULAR HEMOGLOBIN [1]: 24.67 pg
MEAN CORPUSCULAR HEMOGLOBIN CONCENTRATION [1]: 38.85 G/DL
MEAN CORPUSCULAR VOLUME [1]: 63.52 fL
MONOCYTE [1]: 1.17%
NEUTROPHIL [1]: 7.17%
NUCLEATED RED BLOOD CELLS [1]: 0.33 /100WBC
PLATELET COUNT [1]: 1250.83 x10E3/uL
ALANINE AMINOTRANSFERASE [1]: 49.17 u/L
ALBUMIN [1]: 4.33 G/DL
ALKALINE PHOSPHATASE [1]: 378.5 u/L
ASPARTATE AMINOTRANSFERASE [1]: 82.17 u/L
BLOOD UREA NITROGEN [1]: 15 mg/dL
CARBON DIOXIDE [1]: 34.33 mmol/L
CHLORIDE [1]: 99.17 MEQ/L
CHOLESTEROL [1]: 71.17 mg/dL
CREATINE PHOSPHOKINASE [1]: 258.67 u/L
CREATININE [1]: 0.18 mg/dL
GLUCOSE [1]: 142.67 mg/dL
LACTATE DEHYDROGENASE [1]: 154.33 u/L
LIPASE [1]: 9 u/L
PHOSPHORUS [1]: 11.67 mg/dL
POTASSIUM [1]: 7.13 MEQ/L
SODIUM [1]: 142.22 MEQ/L
TOTAL BILIRUBIN [1]: 0.18 mg/dL
TOTAL PROTEIN [1]: 5.77 G/DL
URIC ACID [1]: 1.55 mg/dL
ABSOLUTE BASOPHIL [2]: 0 CELLS/uL
ABSOLUTE EOSINOPHIL [2]: 23.33 CELLS/uL
ABSOLUTE LYMPHOCYTE [2]: 14943.67 CELLS/uL
ABSOLUTE MONOCYTE [2]: 32 CELLS/uL
ABSOLUTE SEGMENTED NEUTROPHIL [2]: 1084.33 CELLS/uL
BASOPHIL [2]: 0%
EOSINOPHIL [2]: 0.17%
ERYTHROCYTE COUNT [2]: 5.71 x10E6/uL
HEMATOCRIT [2]: 35.28%
HEMOGLOBIN [2]: 14.27 G/DL
LEUKOCYTE COUNT [2]: 16.08 x10E3/uL
LYMPHOCYTE [2]: 93%
MEAN CORPUSCULAR HEMOGLOBIN [2]: 25.02 pg
MEAN CORPUSCULAR HEMOGLOBIN CONCENTRATION [2]: 40.43 G/DL
MEAN CORPUSCULAR VOLUME [2]: 61.82 fL
MONOCYTE [2]: 0.17%
NEUTROPHIL [2]: 6.67%
NUCLEATED RED BLOOD CELLS [2]: 0.33 /100WBC
PLATELET COUNT [2]: 1274 x10E3/uL
ALANINE AMINOTRANSFERASE [2]: 54.17 u/L
ALBUMIN [2]: 4.22 G/DL
ALKALINE PHOSPHATASE [2]: 373.17 u/L
ASPARTATE AMINOTRANSFERASE [2]: 81.83 u/L
BLOOD UREA NITROGEN [2]: 16.67 mg/dL
CARBON DIOXIDE [2]: 30.33 mmol/L
CHLORIDE [2]: 99 MEQ/L
CHOLESTEROL [2]: 71 mg/dL
CREATINE PHOSPHOKINASE [2]: 273.5 u/L
CREATININE [2]: 0.22 mg/dL
GLUCOSE [2]: 141.83 mg/dL
LACTATE DEHYDROGENASE [2]: 153.67 u/L
LIPASE [2]: 10.33 u/L
PHOSPHORUS [2]: 11.38 mg/dL
POTASSIUM [2]: 7.08 MEQ/L
SODIUM [2]: 142.75 MEQ/L
TOTAL BILIRUBIN [2]: 0.18 mg/dL
TOTAL PROTEIN [2]: 6.1 G/DL
URIC ACID [2]: 1.67 mg/dL
ABSOLUTE BASOPHIL [3]: 0 CELLS/uL
ABSOLUTE EOSINOPHIL [3]: 43.67 CELLS/uL
ABSOLUTE LYMPHOCYTE [3]: 14019 CELLS/uL
ABSOLUTE MONOCYTE [3]: 367 CELLS/uL
ABSOLUTE SEGMENTED NEUTROPHIL [3]: 1137 CELLS/uL
BASOPHIL [3]: 0%
EOSINOPHIL [3]: 0.33%
ERYTHROCYTE COUNT [3]: 5.52 x10E6/uL
HEMATOCRIT [3]: 36.5%
HEMOGLOBIN [3]: 14.27 G/DL
LEUKOCYTE COUNT [3]: 15.57 x10E3/uL
LYMPHOCYTE [3]: 89.67%
MEAN CORPUSCULAR HEMOGLOBIN [3]: 25.87 pg
MEAN CORPUSCULAR HEMOGLOBIN CONCENTRATION [3]: 39.17 G/DL
MEAN CORPUSCULAR VOLUME [3]: 66.13 fL
MONOCYTE [3]: 2.33%
NEUTROPHIL [3]: 7.67%
NUCLEATED RED BLOOD CELLS [3]: 0.67 /100WBC
PLATELET COUNT [3]: 1268.67 x10E3/uL
ALANINE AMINOTRANSFERASE [3]: 66 u/L
ALBUMIN [3]: 4.57 G/DL
ALKALINE PHOSPHATASE [3]: 374.67 u/L
ASPARTATE AMINOTRANSFERASE [3]: 95 u/L
BLOOD UREA NITROGEN [3]: 16.67 mg/dL
CARBON DIOXIDE [3]: 29.67 mmol/L
CHLORIDE [3]: 99.67 MEQ/L
CHOLESTEROL [3]: 67 mg/dL
CREATINE PHOSPHOKINASE [3]: 308 u/L
CREATININE [3]: 0.25 mg/dL
GLUCOSE [3]: 141.33 mg/dL
LACTATE DEHYDROGENASE [3]: 432 u/L
LIPASE [3]: 8.67 u/L
PHOSPHORUS [3]: 11.9 mg/dL
POTASSIUM [3]: 6.67 MEQ/L
SODIUM [3]: 145.33 MEQ/L
TOTAL BILIRUBIN [3]: 0.33 mg/dL
TOTAL PROTEIN [3]: 6.13 G/DL
URIC ACID [3]: 2.03 mg/dL
